Test results: patent publication US20100267743A1, “3-(PHENOXYPYRROLIDIN-3-YL-METHYL)HETEROARYL, 3-(PHENYLPYRROLIDIN-3-YLMETHOXY)HETEROARYL, AND 3-(HETEROARYLPYRROLIDIN-3-YLMETHOXY)HETEROARYL COMPOUNDS” (priority 2009, published 2010)
Marks after values point to notes of the source that are not given here.

Columns and labels:
SERT = SERT (Homo sapiens, UniProt P31645); assay: hSERT radioligand binding assay (3H-citalopram); parameters: expressed in transfected cells; host or cells: HEK-293; settings: hSERT membranes (HEK-293), 1.0 nM 3H-citalopram; for Ki: read-out: SERT pKi (converted)
Chain of SERT (P31645 whole entry): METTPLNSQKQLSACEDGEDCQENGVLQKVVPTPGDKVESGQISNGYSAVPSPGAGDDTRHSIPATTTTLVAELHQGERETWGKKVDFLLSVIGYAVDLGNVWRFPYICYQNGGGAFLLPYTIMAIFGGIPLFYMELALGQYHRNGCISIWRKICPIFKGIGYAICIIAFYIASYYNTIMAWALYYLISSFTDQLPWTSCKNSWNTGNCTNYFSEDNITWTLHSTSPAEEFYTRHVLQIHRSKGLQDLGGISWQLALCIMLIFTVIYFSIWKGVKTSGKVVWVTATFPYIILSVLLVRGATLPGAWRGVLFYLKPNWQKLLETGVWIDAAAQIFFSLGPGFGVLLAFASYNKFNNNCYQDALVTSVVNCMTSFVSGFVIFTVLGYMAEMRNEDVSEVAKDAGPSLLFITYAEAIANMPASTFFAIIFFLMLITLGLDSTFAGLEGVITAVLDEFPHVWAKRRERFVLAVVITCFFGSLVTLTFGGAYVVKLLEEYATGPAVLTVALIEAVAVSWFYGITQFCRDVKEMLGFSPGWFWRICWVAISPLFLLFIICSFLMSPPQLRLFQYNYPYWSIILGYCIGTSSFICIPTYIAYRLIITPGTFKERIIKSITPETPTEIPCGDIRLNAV
Description: (§1) Membrane radioligand binding assays were used to measure inhibition of labeled ligand (^3H-citalopram or ^3H-nisoxetine or ^3H-WIN35428) binding to membranes prepared from cells expressing the respective human recombinant transporter (hSERT or hNET or hDAT) in order to determine the pKi values of test compounds at the transporters.
(§2) Recombinant human embryonic kidney (HEK-293) derived cell lines stably transfected with hSERT or hNET, respectively, were grown in DMEM medium supplemented with 10% dialyzed FBS (for hSERT) or FBS (for hNET), 100 μg/ml penicillin, 100 μg/ml streptomycin, 2 mM L-glutamine and 250 μg/ml of the aminoglycoside antibiotic G418, in a 5% CO2 humidified incubator at 37° C. When cultures reached 80% confluence, the cells were washed thoroughly in PBS (without […] and Mg^2+) and lifted with 5 mM EDTA in PBS. Cells were pelleted by centrifugation, resuspended in lysis buffer (10 mM Tris-HCl, pH7.5 containing 1 mM EDTA), homogenized, pelleted by centrifugation, then resuspended in 50 mM Tris-HCl, pH 7.5 and 10% sucrose at 4° C. Protein concentration of the membrane suspension was determined using a Bio-Rad Bradford Protein Assay kit. Membranes were snap frozen and stored at −80° C. Chinese hamster ovary membranes expressing hDAT (CHO-DAT) were purchased from PerkinElmer and stored at −80° C.
(§3) Binding assays were performed in a 96-well assay plate in a total volume of 200 μl assay buffer (50 mM Tris-HCl, 120 mM NaCl, 5 mM KCl, pH 7.4) with 0.5, 1, and 3 μg membrane protein, for SERT, NET and DAT, respectively.
(§4) Stock solutions (10 mM in DMSO) of test compound were prepared and serial dilutions made using Dilution Buffer (50 mM Tris-HCl, 120 mM NaCl, 5 mM KCl, pH 7.4, 0.1% BSA, 400 μM ascorbic acid).
(§5) Following a 60 minute incubation at 22° C. (or a period sufficient to reach equilibrium), the membranes were harvested by rapid filtration over a 96-well UniFilter GF/B plate, pretreated with 0.3% polyethyleneimine, and washed 6 times with 300 μl wash buffer (50 mM Tris-HCl, 0.9% NaCl, pH 7.5 at 4° C.). Plates were dried overnight at room temperature, ˜45 μl of MicroScint™-20 (Perkin Elmer) added and bound radioactivity quantitated via liquid scintillation spectroscopy. Inhibition curves and saturation isotherms were analyzed using GraphPad Prism Software package (GraphPad Software, Inc., San Diego, Calif.). IC50 values were generated from concentration response curves using the Sigmoidal Dose Response (variable slope) algorithm in Prism GraphPad. Kd and Bmax values for the radioligand were generated from saturation isotherms using the Saturation Binding Global Fit algorithm in Prism GraphPad. pKi (negative decadic logarithm of Ki) values for test compounds were calculated from the best-fit IC50 values, and the Kd value of the radioligand, using the Cheng-Prusoff equation (Cheng & Prusoff (1973) Biochem. Pharmacol. 22(23):3099-3108): Ki=IC50/(1+[L]/Kd), where [L]=concentration radioligand.

NET = NET (Homo sapiens, UniProt P23975); assay: hNET radioligand binding assay (3H-nisoxetine); parameters: expressed in transfected cells; host or cells: HEK-293; settings: hNET membranes (HEK-293), 1.0 nM 3H-nisoxetine; for Ki: read-out: NET pKi (converted)
Chain of NET (P23975 whole entry): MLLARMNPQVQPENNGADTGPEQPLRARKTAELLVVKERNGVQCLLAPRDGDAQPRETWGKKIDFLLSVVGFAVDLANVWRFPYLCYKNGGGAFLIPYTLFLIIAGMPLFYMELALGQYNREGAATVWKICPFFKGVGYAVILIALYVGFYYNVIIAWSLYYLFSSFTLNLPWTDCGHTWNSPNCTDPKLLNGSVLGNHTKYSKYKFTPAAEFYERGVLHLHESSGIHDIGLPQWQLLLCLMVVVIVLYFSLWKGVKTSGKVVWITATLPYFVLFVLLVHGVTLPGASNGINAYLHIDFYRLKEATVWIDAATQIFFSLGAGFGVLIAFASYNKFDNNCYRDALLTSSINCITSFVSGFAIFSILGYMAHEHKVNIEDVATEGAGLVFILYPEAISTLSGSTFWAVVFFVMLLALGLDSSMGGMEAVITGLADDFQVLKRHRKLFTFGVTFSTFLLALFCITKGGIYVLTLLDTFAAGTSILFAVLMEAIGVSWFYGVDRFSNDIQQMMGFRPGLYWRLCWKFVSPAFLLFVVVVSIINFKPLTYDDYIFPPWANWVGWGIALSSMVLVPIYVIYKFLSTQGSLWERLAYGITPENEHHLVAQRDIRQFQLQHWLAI
Description: as §1, §2, §3, §4, §5

| Structure (SMILES) | Ki (SERT) | Ki (NET) | SERT pKi (SERT) | NET pKi (NET) |
| --- | --- | --- | --- | --- |
| Clc1cc(Cl)cc(O[C@H](c2ncco2)[C@H]2CCNC2)c1 [6-44] | ≤ 100 nM | ≤ 100 nM |  |  |
| O=C(O)C(F)(F)F.c1ccc([C@H](Oc2ccccn2)[C@H]2CCNC2)cc1 [14-41] |  |  | ≧7.0 | ≧7.0 |
| Fc1cc(F)c(Cl)c(O[C@@H](c2ncco2)[C@H]2CCNC2)c1Cl.O=C(O)C(F)(F)F [6-9] |  |  | ≧5.0 | ≧7.0 |
| FC(F)(F)COc1ncccc1O[C@@H](c1ccccc1)[C@H]1CCNC1.O=C(O)C(F)(F)F [15-11] |  |  | ≧7.0 | ≧7.0 |
| Cc1cc(Cl)ccc1O[C@@H](c1cncnc1)[C@H]1CCNC1.O=C(O)C(F)(F)F [12-3] |  |  | ≧7.0 | ≧7.0 |
| CC(=O)c1c(O[C@@H](c2ncco2)[C@H]2CCNC2)ccc(Cl)c1Cl.O=C(O)C(F)(F)F [6-27] |  |  | ≧7.0 | ~5.0* |
| O=C(O)C(F)(F)F.c1ccc2cc(O[C@@H](c3ncco3)[C@H]3CCNC3)ccc2c1 [20-1] |  |  | ≧7.0 | ≧7.0 |
| Clc1cc(Cl)cc(O[C@H](c2cnccn2)[C@H]2CCNC2)c1 [10-10] | ≤ 100 nM | ≤ 10000 nM |  |  |
| Cc1ccc(F)c(O[C@H](c2nccs2)C2CCNC2)c1Cl (some centres unmarked) [Example 5-17] |  |  | ≧7.0 | ≧7.0 |
| FC(F)(F)c1ccccc1O[C@@H](c1ncco1)[C@H]1CCNC1 [6-17] | ≤ 10000 nM | ≤ 100 nM |  |  |
| COc1ccc2ccccc2c1OC(c1ccccc1)C1CCNC1 (centres unmarked) [21-8] | ≤ 100 nM | ≤ 100 nM |  |  |
| COc1ncccc1O[C@@H](c1ccccc1)[C@H]1CCNC1.O=C(O)C(F)(F)F [15-17] |  |  | ≧7.0 | ≧7.0 |
| Cc1c(F)c(F)nc(O[C@@H](c2ccccc2)[C@H]2CCNC2)c1F.O=C(O)C(F)(F)F [14-4] |  |  | ≧7.0 | ≧5.0 |
| Cc1ccnc(OC(c2ccccc2)C2CCNC2)c1 (centres unmarked) [14-32] |  |  | ≧7.0 | ≧7.0 |
| Fc1cc(F)c(O[C@@H](c2cncc(Cl)c2)[C@H]2CCNC2)c(F)c1 [Example 2-33, 3-Chloro-5-[(R)-(S)-pyrrolidin-3-yl-(2,4,6-trifluorophenoxy)methyl]pyridine] | ≤ 100 nM | ≤ 100 nM |  |  |
| Fc1cncc([C@H](Oc2cc(Cl)c(Cl)cc2Cl)[C@H]2CCNC2)c1 [Example 2-34, 3-Fluoro-5-[(R)-(S)-pyrrolidin-3-yl-(2,4,5-trichlorophenoxy)-methyl]pyridine] | ≤ 100 nM | ≤ 10000 nM |  |  |
| Brc1cnc(O[C@@H](c2ccccc2)[C@H]2CCNC2)c(Br)c1.O=C(O)C(F)(F)F [14-13] |  |  | ≧7.0 | ≧7.0 |
| Cc1cc(Cl)ccc1O[C@H](c1ncco1)[C@H]1CCNC1 [6-35] | ≤ 100 nM | ≤ 10000 nM |  |  |
| Fc1cc(F)c(Cl)c(OC(c2nccs2)C2CCNC2)c1Cl [Example 5-9, 2-[((S)-(2,6-Dichloro-3,5-difluorophenoxy)-((S)-pyrrolidin-3-yl-methyl]thiazole] | ≤ 100 nM | ≤ 100 nM |  |  |
| Cc1cc(Cl)ccc1O[C@@H](c1cnccn1)[C@H]1CCNC1.O=C(O)C(F)(F)F [10-5] |  |  | ≧7.0 | ≧7.0 |
| CC(C)c1ccccc1O[C@@H](c1ncco1)[C@H]1CCNC1.O=C(O)C(F)(F)F [6-32] |  |  | ≧5.0 | ≧7.0 |
| Fc1ccc(F)c(OC(c2nccs2)C2CCNC2)c1Cl [Example 5-16, 2-[((S)-(2-Chloro-3,6-difluorophenoxy)-((S)-pyrrolidin-3-yl-methyl]thiazole] | ≤ 100 nM | ≤ 100 nM |  |  |

| Structure (SMILES) | Ki (SERT) | Ki (NET) | SERT pKi (SERT) | NET pKi (NET) |
| --- | --- | --- | --- | --- |
| Fc1ccc(F)c(O[C@@H](c2ccco2)[C@H]2CCNC2)c1Cl [Example 8-1, (S)-3-[(R)-(2-Chloro-3,6-difluorophenoxy)furan-2-yl-methyl]pyrrolidine] | ≤ 10000 nM | ≤ 10000 nM |  |  |
| Cc1cc(Cl)cc(Cl)c1OC(c1cncc(Cl)c1)C1CCNC1 [Example 2-30, 3-Chloro-5-[(R)-(2,4-dichloro-6-methylphenoxy)-(S)-pyrrolidin-3-yl-methy1]-pyridine] | ≤ 100 nM | ≤ 10000 nM |  |  |
| Fc1c(Cl)ccc(O[C@@H](c2ncco2)[C@H]2CCNC2)c1Cl.O=C(O)C(F)(F)F [6-4] |  |  | ≧7.0 | ≧7.0 |
| Cc1cnc(O[C@@H](c2ccccc2)[C@H]2CCNC2)c(Br)c1.O=C(O)C(F)(F)F [14-31] |  |  | ≧7.0 | ≧7.0 |
| Cc1ccc(OC(c2ccccc2)C2CCNC2)cn1 (centres unmarked) [15-28] |  |  | ≧7.0 | ≧5.0 |
| Cc1ncccc1O[C@@H](c1ccccc1)[C@H]1CCNC1.O=C(O)C(F)(F)F [15-9] |  |  | ≧5.0 | ≧5.0 |
| Fc1cccc(O[C@@H](c2ccccc2)[C@H]2CCNC2)n1.O=C(O)C(F)(F)F [14-10] |  |  | ≧5.0 | ≧7.0 |
| Fc1cc(Cl)ccc1OC(c1nccs1)C1CCNC1 [Example 5-32, 2-[(R)-(4-Chloro-2-fluorophenoxy)-((S)-pyrrolidin-3-yl-methyl]thiazole] | ≤ 100 nM | ≤ 10000 nM |  |  |
| Fc1ccc(OC(c2nccs2)C2CCNC2)c(F)c1F [Example 5-2, 2-[((S)-((S)-Pyrrolidin-3-yl-(2,3,4-trifluorophenoxy)methyl]thiazole] |  | ≤ 100 nM | ≧7.0 |  |
| Cc1cc(Cl)cnc1O[C@@H](c1ccccc1)[C@H]1CCNC1 [Example 13] | ≤ 100 nM | ≤ 100 nM |  |  |
| Fc1ccc(OC(c2nccs2)[C@H]2CCNC2)c(Cl)c1 (stereo partly drawn) [Example 5-20, 2-[(S)-(2-Chloro-4-fluorophenoxy)-pyrrolidin-3-yl-methyl]thiazole] | ≤ 100 nM | ≤ 100 nM |  |  |
| Cc1cc(Cl)cnc1O[C@@H](c1cncc(F)c1)[C@H]1CCNC1 [Example 17] | ≤ 100 nM | ≤ 100 nM |  |  |
| Fc1cc(F)c(O[C@@H](c2ccncc2)[C@H]2CCNC2)c(F)c1 [Example 3-1, 4-[(R)-(S)-Pyrrolidin-3-yl-(2,4,6-trifluorophenoxy)methyl]pyridine] | ≤ 10000 nM | ≤ 10000 nM |  |  |
| Fc1cncc(C(Oc2ccc(Cl)cc2Cc2ccccc2)C2CCNC2)c1 [Example 2-47, 3-[(R)-(2-Benzy1-4-chlorophenoxy)-(S)-pyrrolidin-3-yl-methy1]-5-fluoropyridine] | ≤ 100 nM | ≤ 100 nM |  |  |
| Fc1cc(F)c(F)c(OC(c2nccs2)C2CCNC2)c1F [Example 5-4, 2-[((S)-((S)-Pyrrolidin-3-yl-(2,3,5,6-tetrafluorophenoxy)methyl]thiazole] | ≤ 10000 nM | ≤ 100 nM |  |  |
| Cc1cc(Cl)ccc1O[C@H](c1cncc(F)c1)[C@H]1CCNC1 [Example 2-61, 3-[(S)-(4-Chloro-2-methylphenoxy)-(S)-pyrrolidin-3-yl-methyl]-5-fluoropyridine] | ≤ 100 nM | ≤ 10000 nM |  |  |
| Clc1cc(O[C@@H](c2ccccc2)[C@H]2CCNC2)cc(Cl)n1.O=C(O)C(F)(F)F [16-2] |  |  | ≧7.0 | ≧5.0 |
| Fc1ccc(O[C@@H](c2ncco2)[C@H]2CCNC2)c(Cl)c1.O=C(O)C(F)(F)F [6-22] |  |  | ≧5.0 | ≧7.0 |
| CCc1cc(F)cc(F)c1O[C@H](c1cncc(F)c1)[C@@H]1CCNC1 [Example 2-57, 3-[(R)-(2-Ethy1-4,6-difluorophenoxy)-(S)-pyrrolidin-3-yl-methyl]-5-fluoropyridine] |  |  | ≧7.0 | ≧7.0 |
| FC(F)(F)c1cnc(O[C@@H](c2ccccc2)[C@H]2CCNC2)c(Cl)c1.O=C(O)C(F)(F)F [14-25] |  |  | ≧7.0 | ≧5.0 |
| Clc1cccc(O[C@@H](c2ccccc2)[C@H]2CCNC2)n1.O=C(O)C(F)(F)F [14-9] |  |  | ≧7.0 | ≧7.0 |
